Measured values: article PMC8632246, “KCNQ and KCNE Isoform-Dependent Pharmacology Rationalizes Native American Dual Use of Specific Plants as Both Analgesics and Gastrointestinal Therapeutics” (Frontiers in Physiology, 2021)

Assays:
KCNQ1 = target: T1, KCNQ1 (Homo sapiens, UniProt P51787); assay: two-electrode voltage clamp in Xenopus oocytes, […] quercetin; type: cell-based
T1 construct: homomeric human KCNQ1 expressed in Xenopus oocytes
T1 sequence (P51787 1-676): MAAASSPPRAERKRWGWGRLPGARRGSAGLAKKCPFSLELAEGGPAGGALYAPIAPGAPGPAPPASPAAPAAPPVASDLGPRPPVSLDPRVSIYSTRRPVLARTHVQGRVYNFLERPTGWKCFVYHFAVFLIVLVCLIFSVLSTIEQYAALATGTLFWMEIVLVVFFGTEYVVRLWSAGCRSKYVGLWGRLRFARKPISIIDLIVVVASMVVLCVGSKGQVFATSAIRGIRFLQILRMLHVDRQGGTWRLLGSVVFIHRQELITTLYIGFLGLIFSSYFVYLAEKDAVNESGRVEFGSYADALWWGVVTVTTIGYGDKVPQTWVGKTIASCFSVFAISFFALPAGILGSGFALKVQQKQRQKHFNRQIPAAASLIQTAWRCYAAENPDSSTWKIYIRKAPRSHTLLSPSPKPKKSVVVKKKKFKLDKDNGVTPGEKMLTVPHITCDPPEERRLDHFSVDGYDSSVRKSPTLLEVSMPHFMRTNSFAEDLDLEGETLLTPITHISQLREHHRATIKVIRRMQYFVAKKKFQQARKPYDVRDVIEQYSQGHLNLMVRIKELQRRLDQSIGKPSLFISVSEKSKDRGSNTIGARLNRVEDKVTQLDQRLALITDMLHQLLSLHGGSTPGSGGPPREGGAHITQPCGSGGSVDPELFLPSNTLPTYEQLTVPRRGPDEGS

KCNQ2/3 (KCNQ3 subunit) = target: T2, KCNQ2/3 (KCNQ3 subunit) (Homo sapiens, UniProt O43525+O43526); assay: two-electrode voltage clamp in Xenopus oocytes, dose response at -70 mV; WL/WL and RA/RA mutants insensitive; type: cell-based
T2 construct: human KCNQ2/3 heteromeric channel expressed in Xenopus oocytes; with KCNQ2
T2 sequence (O43525 whole entry): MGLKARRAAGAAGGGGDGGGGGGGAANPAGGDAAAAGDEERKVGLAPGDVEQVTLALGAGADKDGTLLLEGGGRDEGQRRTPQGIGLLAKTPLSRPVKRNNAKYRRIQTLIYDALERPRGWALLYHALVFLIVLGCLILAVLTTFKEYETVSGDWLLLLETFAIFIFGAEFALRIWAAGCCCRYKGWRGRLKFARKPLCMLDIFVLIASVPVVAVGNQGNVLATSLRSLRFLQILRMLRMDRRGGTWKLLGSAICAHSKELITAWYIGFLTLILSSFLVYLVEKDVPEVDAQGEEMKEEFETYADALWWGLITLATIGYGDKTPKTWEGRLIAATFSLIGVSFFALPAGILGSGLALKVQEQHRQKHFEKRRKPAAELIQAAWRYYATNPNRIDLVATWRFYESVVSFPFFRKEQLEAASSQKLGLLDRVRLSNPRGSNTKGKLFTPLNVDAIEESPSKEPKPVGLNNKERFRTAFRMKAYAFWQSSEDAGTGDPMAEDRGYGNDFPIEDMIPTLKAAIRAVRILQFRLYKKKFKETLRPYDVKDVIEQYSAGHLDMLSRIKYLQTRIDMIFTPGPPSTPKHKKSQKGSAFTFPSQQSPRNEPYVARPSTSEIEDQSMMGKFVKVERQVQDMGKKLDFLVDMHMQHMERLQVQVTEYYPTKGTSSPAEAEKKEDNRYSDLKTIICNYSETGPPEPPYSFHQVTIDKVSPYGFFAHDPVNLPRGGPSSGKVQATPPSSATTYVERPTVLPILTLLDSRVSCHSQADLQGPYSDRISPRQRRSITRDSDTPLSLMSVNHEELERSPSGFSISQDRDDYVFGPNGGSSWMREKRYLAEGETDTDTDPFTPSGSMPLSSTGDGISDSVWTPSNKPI
T2 sequence (O43526 whole entry): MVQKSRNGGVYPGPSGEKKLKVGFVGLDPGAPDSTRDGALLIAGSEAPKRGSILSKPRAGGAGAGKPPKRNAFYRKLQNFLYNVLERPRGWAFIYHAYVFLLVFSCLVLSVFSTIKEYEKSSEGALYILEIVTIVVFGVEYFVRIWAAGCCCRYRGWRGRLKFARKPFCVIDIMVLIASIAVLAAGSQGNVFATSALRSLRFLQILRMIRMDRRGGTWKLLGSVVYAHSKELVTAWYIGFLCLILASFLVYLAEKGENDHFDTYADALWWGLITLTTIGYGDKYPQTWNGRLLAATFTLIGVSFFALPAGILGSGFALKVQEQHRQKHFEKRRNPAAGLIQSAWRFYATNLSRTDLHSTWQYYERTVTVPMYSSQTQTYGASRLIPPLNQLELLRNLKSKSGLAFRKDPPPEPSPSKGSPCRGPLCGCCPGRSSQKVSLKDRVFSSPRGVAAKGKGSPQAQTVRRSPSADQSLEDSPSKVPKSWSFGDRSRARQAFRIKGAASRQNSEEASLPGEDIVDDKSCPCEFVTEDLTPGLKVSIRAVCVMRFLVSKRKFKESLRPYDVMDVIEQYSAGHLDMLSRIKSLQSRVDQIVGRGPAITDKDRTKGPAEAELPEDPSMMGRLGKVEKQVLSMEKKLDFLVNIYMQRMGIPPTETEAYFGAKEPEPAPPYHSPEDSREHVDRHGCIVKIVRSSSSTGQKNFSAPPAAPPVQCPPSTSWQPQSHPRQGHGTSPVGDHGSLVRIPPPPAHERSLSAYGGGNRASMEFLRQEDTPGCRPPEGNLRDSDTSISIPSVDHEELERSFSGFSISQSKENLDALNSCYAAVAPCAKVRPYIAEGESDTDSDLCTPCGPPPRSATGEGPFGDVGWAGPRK

| EC50 (KCNQ2/3 (KCNQ3 subunit)) | Compound | two-electrode voltage clamp in Xenopus oocytes, 100 uM quercetin (KCNQ1) |
| --- | --- | --- |
|  | O=c1c(O)c(-c2ccc(O)c(O)c2)oc2cc(O)cc(O)c12 [quercetin] | quercetin enhances both activation and inactivation of homomeric KCNQ1 channels, inducing visible voltage-dependent decay at depolarized potentials |
| 560 ± 3 nM | O=C(O)c1cc(O)c(O)c(O)c1 [gallic acid] |  |
